pIC50, pKi: −log10 of the molar value. Like-named read-outs stand apart in the source and are kept apart here.
Assays:
[1] = target: T1, TcPRAC (Trypanosoma cruzi, UniProt Q4DA80); test: TcPRAC inhibition by PYC derivatives (polarimetry and DAAO methodologies); type: biochemical; conditions: for pKi: Ki
T1 construct: His tag (inferred from nickel IMAC purification); made in house; host or cells: E. coli BL21 (DE3)
Experimental: Recombinant Trypanosoma cruzi proline racemase (EC 5.1.1.4) was produced in E. Coli BL21 (DE3) (Invitrogen) and purified by immobilized metal affinity chromatography on nickel columns, as previously described.
(§1) Optimum Proline racemization conditions for TcPRAC were determined using 10–300 mM L-Proline in 0.2 M NaOAc over a range of pH values, as described and L- to D- proline conversion took place in 1.5 mL reaction. Concentrations of D-proline formed were determined by optical rotation of the solution at 365 nm in a 10 cm optical path cell, thermostated at 37°C, using a polarimeter (Perkin Elmer 241 MC). Assays were also performed into microtiter plates (100 µL), as follows: dilutions of L- Proline (40 mM to 2.5 mM) in 0.2 M sodium acetate pH 6.0 and 0.25 mM TcPRAC were loaded into microtiter plate wells with 0–20 µM PYC or similar concentrations of potential inhibitors. Controls omitted TcPRAC and/or PYC. The microtiter plates were incubated for 30 minutes at 37°C. The enzyme was inactivated by heating in a microwave oven for 15 s at 900 Watts and shifting the pH to 8.3 by adding 6.8 µL of 0.235 M sodium pyrophosphate. The presence of D-Proline was tested in 50 µL from each well using the D-amino oxidase - Horse Radish Peroxidase/OPD combined test. Interference caused by the possible reactivity of amino acid L-forms with DAAOx was taken into account by using standards consisting of serial dilutions of an equimolar mixture of D- and L-proline ranging from 0 to 10 mM (10 mM total). For instance, DAAOx reacts with L-Proline 300 times slower than with D-Proline. Optical densities, OD490 nm – OD650 nm were recorded on a microtiter plate reader (Molecular Devices), and the signals from the blank control wells were deducted.

[2] = Solubility (qualitative); type: physicochemical; conditions: for Solubility: solvent in which the compound is soluble, qualitative
[3] = target: T1, TcPRAC; test: DAAOx test of D-proline formed by TcPRAC; type: biochemical; conditions: for D-Proline formed: inhibitor 10 µM, without inhibitor 5.0 µM
Experimental: as §1
(§2) Only two novel TcPRAC inhibitors, both provided by the CN, were identified among these (Figure 4B).

[4] = target: T1, TcPRAC; test: Inhibition of TcPRAC proline racemization measured by polarimetry; type: biochemical
Experimental: as §1, §2

[5] = target: T1, TcPRAC; test: Kinetics of D-proline formation with time / enzyme inactivation (polarimetry); type: biochemical; conditions: for mode of TcPRAC inhibition: pre-incubation 5 or 10 min, 15 fold dilution, 300 mM L-proline
Experimental: Kinetic reaction assays using fixed amounts of dimeric PRAC (22 µg –0.24 µM final), 40 mM substrate and 10 µM of the identified inhibitors were performed to characterize their effect on enzymatic activity (Figure 5). […] To further characterize the mode of action of this two molecules, the enzyme was pre-incubated (concentration 22 µg − 3,6 µM) with different concentration of inhibitor, for 5 or 10 min to determine inhibition dependence to inhibitor concentration and pre-incubation time. Then, the reaction mixture was diluted 15 fold and residual activity was determined in an excess of substrate (300 mM of L- proline).
Figure 5 Kinetics of D-proline formation with time in the presence or absence of TcPRAC inhibitors. (A) Concentrations of D-proline formed were determined by polarimetry in reaction assays containing 0.15 µM of TcPRAC and 40 mM L proline (see Material and Methods).

[6] = test system: T. cruzi; test: Vero cell infection by T. cruzi trypomastigotes, endocytic index (Giemsa count); type: cell-based, Trypanosoma cruzi; conditions: for Endocytic index (EI): added with parasites, 17 h, Vero cells
Experimental: Cell culture-derived trypomastigotes from T. cruzi CL Brener (clone F11-F5) were isolated from the supernatant of bulk cultures of green monkey Vero kidney cells previously infected with bloodstream trypomastigotes. Known numbers of parasites, adherent infected cells and uninfected cell controls were lysed with 0.1 mL of 0.05% Tween 20 solution in sterile distilled water and the lysates were frozen. Vero cells were seeded in LabTek slides (5×10^4 cells/well) in RPMI 1640 medium/5% FCS and kept at 37°C, 5% CO2. […] To test the effect of the inhibitors on the parasite intracellular cycle, […] different dilutions of the compounds. All cultures were then washed with PBS, fixed and stained with Giemsa. The number of infected host cells was recorded along with the number of parasites per infected cell in at least 400 host cells, in duplicate experiments. Results were expressed as the endocytic index (EI) resulting from the product of the percentage of infected cells and the mean number of parasites per infected cell. Control cultures were incubated in medium alone or with equal DMSO concentrations.
(§3) To verify the potential of these new PRAC inhibitors as lead compounds in drug design strategies, we compared their effects on cultures of host Vero cells infected or not with T. cruzi, with that of PYC. […] To determine whether the treatment of these cultures with the new compounds would indeed affect intracellular TcPRAC and as such interfere with parasite intracellular fate cells were then washed after parasite uptake and the same ligand concentrations as above (10 µM − 30 µM) were added to the cultures in fresh medium. The degree of infection was determined over 48 hours by capture ELISA. As expected, the number of parasites per well decreased in a dose-dependent manner (Figure 7). In vitro and in vivo experiments using mutant parasites that carry the luciferase gene are now in progress to support those data.

[7] = test system: T. cruzi; test: Vero cell infection by T. cruzi, total parasite numbers/culture by capture ELISA; type: cell-based, Trypanosoma cruzi
Experimental: Cell culture-derived trypomastigotes from T. cruzi CL Brener (clone F11-F5) were isolated from the supernatant of bulk cultures of green monkey Vero kidney cells previously infected with bloodstream trypomastigotes. Known numbers of parasites, adherent infected cells and uninfected cell controls were lysed with 0.1 mL of 0.05% Tween 20 solution in sterile distilled water and the lysates were frozen. Vero cells were seeded in LabTek slides (5×10^4 cells/well) in RPMI 1640 medium/5% FCS and kept at 37°C, 5% CO2. […] To test the effect of the inhibitors on the parasite intracellular cycle, cultures were infected at 37°C for 17 hours without inhibitors, washed three times to eliminate extracellular parasites then incubated for up to 48 hours with fresh medium containing different dilutions of the compounds. All cultures were then washed with PBS, fixed and stained with Giemsa. The number of infected host cells was recorded along with the number of parasites per infected cell in at least 400 host cells, in duplicate experiments. Results were expressed as the endocytic index (EI) resulting from the product of the percentage of infected cells and the mean number of parasites per infected cell. Control cultures were incubated in medium alone or with equal DMSO concentrations.
Flat-bottomed microtiter plates (Nunc, Denmark) were coated overnight at 4°C with rabbit anti-T. cruzi polyclonal antibodies and further blocked for 4 h at room temperature (RT) with 1% BSA, 0.05% Tween 20 in PBS. After washings, lysate samples from infected or control Vero cultures, or from T. cruzi, were then added and incubated at 4°C for 18 h. Plates were washed with PBS-Tween and incubated for 2 h at RT with polyclonal mouse anti-T. cruzi chronic serum, washed again and incubated for 1 h at RT with HRP-secondary antibodies. […] Optical densities were determined in a spectrophotometer at 450 nm and 650 nm, and analyzed by Softmax Pro software.
as §3
Total parasite numbers/culture were estimated by capture ELISA.

[8] = test system: non infected Vero cells; test: Viability of non infected Vero cells; type: cell-based, green monkey; conditions: 3, 10 and 30 µM
Experimental: Cell culture-derived trypomastigotes from T. cruzi CL Brener (clone F11-F5) were isolated from the supernatant of bulk cultures of green monkey Vero kidney cells previously infected with bloodstream trypomastigotes. Known numbers of parasites, adherent infected cells and uninfected cell controls were lysed with 0.1 mL of 0.05% Tween 20 solution in sterile distilled water and the lysates were frozen. Vero cells were seeded in LabTek slides (5×10^4 cells/well) in RPMI 1640 medium/5% FCS and kept at 37°C, 5% CO2. […] The number of infected host cells was recorded along with the number of parasites per infected cell in at least 400 host cells, in duplicate experiments. Results were expressed as the endocytic index (EI) resulting from the product of the percentage of infected cells and the mean number of parasites per infected cell. […]
To verify the potential of these new PRAC inhibitors as lead compounds in drug design strategies, we compared their effects on cultures of host Vero cells infected or not with T. cruzi, with that of PYC. […] The degree of infection was determined over 48 hours by capture ELISA. […]

[9] = target: T1, TcPRAC; conditions: cited from earlier work
[10] = classical Michaelian approaches
[11] = read-out: Racemization Inhibition
[12] = 10 µM inhibitor, 40 mM substrate, 0.24 µM PRAC

T1 sequence (Q4DA80 32-423): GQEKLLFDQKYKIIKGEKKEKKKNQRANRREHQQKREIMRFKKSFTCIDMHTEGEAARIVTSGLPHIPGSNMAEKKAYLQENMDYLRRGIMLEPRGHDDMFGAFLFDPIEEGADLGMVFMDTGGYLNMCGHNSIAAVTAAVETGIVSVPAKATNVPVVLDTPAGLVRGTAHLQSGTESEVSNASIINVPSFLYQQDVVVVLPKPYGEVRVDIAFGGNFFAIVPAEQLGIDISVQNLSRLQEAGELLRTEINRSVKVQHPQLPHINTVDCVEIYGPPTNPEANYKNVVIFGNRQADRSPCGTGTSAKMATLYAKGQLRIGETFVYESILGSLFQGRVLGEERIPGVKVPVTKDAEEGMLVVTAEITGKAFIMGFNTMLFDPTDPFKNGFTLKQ

O=C(O)c1n[nH]cc1Br [Br-PZC, 4-bromo-1H-pyrazole-3-carboxylic acid]
pKi [1, 10]: 3.00 | pKi ([1]; values in text): ~3.00 | Solubility [2]: Water

Cc1[nH]nc(C(=O)O)c1Cl [M-Cl-PZC, 4-chloro-5-methyl-1H-pyrazole-3-carboxylic acid]
pKi [1, 10]: < 2.70 | Solubility [2]: Ethanol

O=C(O)/C=C/C(=O)CBr [Br-OxoPA, (E)-5-bromo-4-oxopent-2-enoic acid]
more potent than PYC in inhibiting TcPRAC [1]: 4 fold | inhibition of conversion of L- into D-proline relative to PYC ([3]; equivalent concentrations, DAAOx test): more than 5 times | D-Proline formed [3]: <0.3 µM | pIC50 [4]: 5.60 | inhibition at 2.5 µM [4, 11]: 50% | inhibition at 10 µM [4, 11]: 81.3% | time at which plateau of enzyme inactivation is reached [5, 12]: 250 s | mode of TcPRAC inhibition [5]: irreversible | lower dose than PYC necessary to obtain the same endocytic index ([6]; 1000 µM PYC equivalent to 10 µM OxoPA or 30 µM Br-OxoPA): 30 fold | Endocytic index (EI) ([6]; inhibitor 3 µM): 78 | Endocytic index (EI) ([6]; inhibitor 10 µM): 42 | Endocytic index (EI) ([6]; inhibitor 30 µM): 29 | percentage in Figure 7 (effect on total parasite numbers/culture, capture ELISA) ([7]; 5 µM): 24% | percentage in Figure 7 (effect on total parasite numbers/culture, capture ELISA) ([7]; 10 µM): 34% | percentage in Figure 7 (effect on total parasite numbers/culture, capture ELISA) ([7]; 30 µM): 39% | viability of non infected Vero cells [8]: neither OxoPA nor Br-OxoPA considerably affected the viability | solubility in water [2]: soluble

CC(=O)/C=C/C(=O)O [OxoPA, (E)-4-oxopent-2-enoic acid]
more potent than PYC in inhibiting TcPRAC [1]: 2 fold | D-Proline formed [3]: <0.3 µM | pIC50 [4]: 5.52 | inhibition at 3 µM [4, 11]: 50% | time at which plateau of enzyme inactivation is reached [5, 12]: 350 s | mode of TcPRAC inhibition [5]: irreversible | percentage in Figure 7 (effect on total parasite numbers/culture, capture ELISA) ([7]; 5 µM): 9% | percentage in Figure 7 (effect on total parasite numbers/culture, capture ELISA) ([7]; 10 µM): 14% | percentage in Figure 7 (effect on total parasite numbers/culture, capture ELISA) ([7]; 30 µM): 15% | viability of non infected Vero cells [8]: neither OxoPA nor Br-OxoPA considerably affected the viability

O=C(O)c1ccc[nH]1 [PYC, 2-pyrrolecarboxylic acid, reference compound]
pKi [1, 10]: 5.00 to 5.22 | D-Proline formed [3]: 2.4 µM (IC50) | pIC50 [4]: 5.00 | inhibition at 10 µM [4, 11]: 56.9% | racemization speed of L-proline, % of original speed [5, 12]: ~37% | Endocytic index (EI) ([6]; inhibitor 10 µM): 44 | Endocytic index (EI) ([6]; inhibitor 100 µM): 30 | Endocytic index (EI) ([6]; inhibitor 1000 µM): 25 | percentage in Figure 7 (effect on total parasite numbers/culture, capture ELISA) ([7]; 10 µM): 4% | percentage in Figure 7 (effect on total parasite numbers/culture, capture ELISA) ([7]; 100 µM): 2% | percentage in Figure 7 (effect on total parasite numbers/culture, capture ELISA) ([7]; 1 mM): 0% | solubility in water [2]: water-insoluble | Solubility [2]: Ethanol | mode of TcPRAC inhibition [9]: classical competitive and reversible

O=C(O)c1cc[nH]n1 [PZC, 1H-pyrazole-3-carboxylic acid]
pKi [1, 10]: < 2.70 | Solubility [2]: Water

CCc1c[nH]nc1C(=O)O [Et-PZC, 4-Ethyl-pyrazole-3-carboxylic acid]
pKi [1, 10]: < 2.70 | Solubility [2]: Water

O=C(O)c1n[nH]cc1Cl [Cl-PZC, 4-chloro-1H-pyrazole-3-carboxylic acid]
pKi [1, 10]: 3.52 | pKi ([1]; values in text): ~3.52 | Solubility [2]: Water
